Assay results published in patent US5814600A, “Method and composition for treatment of insulin requiring mammals” (Amylin Pharmaceuticals Inc., priority 1994, dated 1998).
Entries after “also recorded” stand apart in the source; their conditions may differ. Read-outs that look alike come from different tables or passages of the source.

What was measured:
[1] = tested on: streptozotocin-diabetic rats; experiment: Liver glycogen in insulin-treated streptozotocin diabetic rats, daily s.c. amylin replacement; assay type: in vivo, rat
Procedure: There were 68 male Harlan Sprague Dawley rats (mass 301±3 g) in 8 treatment groups. Animals were housed at 22.7±0.8° C. in a 12:12 hour light:dark cycle (experiments being performed during the light cycle) and fed and watered ad libitum (Diet LM-485, Teklad, Madison, Wis.). The rats were sacrificed for harvesting of livers 4 to 5 hours into the light cycle.
Animals were injected with streptozotocin (Sigma Chemical Company, St Louis, Mo.: Sigma 50130) dissolved in water in a dose of 65 mg/kg into the lateral tail vein. […] Maintaining diabetic rats in this metabolic state optimizes survival. Following one week of established diabetes, animals received once daily s.c. injections of amylin vehicle (water for injection) for 5 days given at the time of the insulin injection.
These animals were treated identically to those in group 1 except that the daily subcutaneous injection contained 3 μg (n=5); 10 μg (n=12); 30 μg (n=5); 100 μg (n=5) or 300 μg (n=5) of rat amylin (Bachem lot# WG485^2/). The bioactivity of the peptide used in these experiments was first verified by bioassay, using inhibition of insulin-stimulated radioglucose incorporation into glycogen in the isolated stripped rat soleus muscle. […] The insulin dose in each of the groups of diabetic animals averaged 1.67 U/animal/day. There were no other observable differences in the required management of the different groups.
These animals were derived from the same stock and housed under the same conditions for the same time as those in groups 1-6, but were given no injections. 24 hours after the fifth daily injection of amylin or water (or an equivalent time after admission to the vivarium in the case of group 7 rats), the non-fasted rats were killed by decapitation and the livers immediately removed and frozen in liquid N2, weighed and stored for subsequent determination of glycogen concentration.
Whole livers were powdered while frozen. Approximately 200 mg of powder was further homogenized in 1.0 mL of 0.6M perchloric acid to denature enzymes. 200 μL of the homogenate was neutralized with 0.5 volumes of 1.0M KHCO3 in either of two acetate buffer solutions, one containing 2.0 mL of 200 mM acetate (pH4.8), the other containing the same but with 18.5 U/mL of amyloglucosidase (EC5 3.2.1.3, from Aspergillus nicer, Sigma A3423, Sigma Chemical Company, St Louis, Mo.) added. Following at least 20 minutes incubation at 23° C., the supernatants were assayed for glucose in an analyzer using D-glucose oxidase immobilized enzyme chemistry (Analyzer model 2300-STAT, YSI, Yellow Springs, Ohio). Purified rabbit liver glycogen (Sigma G8876) used as a standard indicated 98±4% recovery of dissolved glycogen and linearity within the range of observed liver glycogen concentrations (r=0.9994). All reagents were of analytical grade or better.
Statistical comparisons were by Student's t-test routines contained in the SYSTAT system (Systat, Evanston, Ill.). All results are reported as means ± standard error of the mean.

liver glucose output = details: rats; Molina et al. 1990, Koopmans et al. 1990; cited from earlier work
rat soleus muscle = assay type: cell-based
Procedure: Male Harlan Sprague Dawley rats of approximately 200 g mass were used in order to maintain soleus muscle mass less than 40 mg. The animals were fasted for 4 hours prior to sacrifice by decapitation. The skin was stripped from the lower limb which was then pinned out on cork board. The tendo achilles was cut just above os […]. gastrocnemius reflected out from the posterior aspect of the tibia. M. soleus, a small […], 0.55 mm thick flat muscle on the bone surface of m. gastrocnemius was then stripped clear and the perimysium cleaned off using fine scissors and forceps. M. soleus was then split into equal parts using a blade passed antero-posteriorly through the belly of the muscle to obtain a total of 4 muscle strips from each animal. After dissecting the muscle from the animal, it was kept for a short period in physiological saline. The muscle was not held under tension, as reported in other methodologies since in our hands this had no demonstrable effect on the insulin-sensitivity of radioglucose incorporation into glycogen. Muscles were added to 50 mL Erlenmeyer flasks containing 10 mL of a pregassed Krebs-Ringer bicarbonate buffer containing (mM) NaCl 118.5; KCl 5.94; CaCl2 2.54; MgSO4 1.19; KH2 PO4 1.19; NaHCO3 25; glucose 5.5; and recombinant human insulin (Humulin-R, Eli Lilly, Ind.) and either synthetic rat (Bachem, Torrance, Calif. Lot# ZG485) or synthetic human amylin (Bachem, Torrance, Calif. Lot# ZH144) as detailed below. Methods used to determine the nature and purity of rat and human amylin included quantitative amino acid analysis, gas phase amino acid sequencing, reverse phase HPLC and fast-atom-bombardment mass spectrometry. […] Incorporation of mercury into rat amylin may be a feature of many commercially available batches that have already been used in published studies. Since the peptide was bioactive, its action in muscle was expected to at least qualitatively mimic that of true rat amylin. The mercuric method of cyclization was not used in the synthesis of human amylin, which is found by electrospray ionization mass spectrometry and atomic absorption spectroscopy to be mercury-free. Muscles were assigned to different flasks so that the four muscle pieces from each animal were evenly distributed among the different assay conditions. The incubation media were gassed by gently blowing carbogen (95% O2, 5% CO2) over the surface while it was continuously agitated at 37° C. in an oscillating water bath. pH of gassed media at 37° C. was verified as being between 7.1 and 7.4. After a half-hour preincubation, 0.5 μCi of [U-^14 C]-glucose was added to each flask for a further 60 minutes. Each muscle piece was then rapidly removed, trimmed of tendons, blotted, frozen in liquid N2, weighed and then stored at […] for subsequent determination of ^14 C-glycogen. The incubation medium was also frozen for subsequent analysis. The concentration of human amylin present in the medium at the end of the incubation was determined by radioimmunoassay in surfactant-containing buffer. For both human and rat amylin, the actual mass added to the incubation medium was determined by quantitative amino-acid analysis. Each frozen muscle specimen was placed in a vial with 1 mL 60% potassium hydroxide (wt/vol) and digested at 70° C. for 45 minutes under intermittent vigorous agitation. Dissolved glycogen was precipitated onto the walls of the vial by addition of 3 mL absolute ethanol and overnight cooling at -20° C. After centrifugation for 30 minutes at 2000 x-- g, the supernatant was gently aspirated, the glycogen was again washed with ethanol and centrifuged, the ethanol aspirated and the precipitate dried under vacuum. It was important to evaporate all ethanol to avoid quenching during scintillation counting. The remaining glycogen was redissolved in 1 mL water and 4 mL scintillation fluid and counted for ^14 C. […]

CC(C)C[C@H](NC(=O)[C@H](CC(N)=O)NC(=O)[C@H](CC(N)=O)NC(=O)[C@H](CO)NC(=O)[C@H](CO)NC(=O)[C@H](CCCNC(=N)N)NC(=O)[C@@H](NC(=O)[C@H](CC(C)C)NC(=O)[C@H](Cc1ccccc1)NC(=O)[C@H](CC(N)=O)NC(=O)[C@H](C)NC(=O)[C@H](CC(C)C)NC(=O)[C@H](CCCNC(=N)N)NC(=O)[C@H](CCC(N)=O)NC(=O)[C@@H](NC(=O)[C@H](C)NC(=O)[C@@H]1CSSC[C@H](NC(=O)[C@@H](N)CCCCN)C(=O)N[C@@H](CC(N)=O)C(=O)N[C@@H]([C@@H](C)O)C(=O)N[C@@H](C)C(=O)N[C@@H]([C@@H](C)O)C(=O)N1)[C@@H](C)O)C(C)C)C(=O)NCC(=O)N1CCC[C@H]1C(=O)N[C@H](C(=O)N[C@@H](CC(C)C)C(=O)N1CCC[C@H]1C(=O)N1CCC[C@H]1C(=O)N[C@H](C(=O)N[C@@H](CC(N)=O)C(=O)N[C@H](C(=O)NCC(=O)N[C@@H](CO)C(=O)N[C@@H](CC(N)=O)C(=O)N[C@H](C(=O)N[C@@H](Cc1ccc(O)cc1)C(N)=O)[C@@H](C)O)C(C)C)[C@@H](C)O)C(C)C [rat amylin]
liver glycogen versus insulin alone ([1]; amylin 3 μg/day plus insulin): did not measurably increase glycogen levels | liver glycogen restoration towards normal ([1]; amylin 300 μg/day plus insulin): did not measurably restore liver glycogen towards normal | liver glycogen concentration versus normal animals ([1]; amylin 10, 30 and 100 μg per day plus insulin): not significantly different from that in normal animals | liver glycogen versus insulin-only therapy ([1]; amylin 10, 30 and 100 μg/day s.c. for 5 days plus insulin): Significant increases over insulin-only therapy; also recorded: dose-dependent increase in liver glycogen concentration above that in rats replaced with insulin alone | restoration of liver glycogen ([1]; five consecutive daily subcutaneous injections, insulin-treated STZ diabetic rats): dose-dependently restored liver glycogen to normal levels | effect on insulin-mediated suppression of liver glucose output (liver glucose output): reverses insulin-mediated suppression of liver glucose output | EC50 (rat soleus muscle; 4 h): 6.2 nM | Amylin dose response: Maximal response, Mean ± SEM (rat soleus muscle; [insulin] 0 nM (nominal)): 0.85 ± 0.17 μmol/g wet tissue/hr | EC50 (rat soleus muscle; [insulin] 0 nM (nominal), nominal amylin concentrations, read-out: Amylin dose response: EC50, Mean ± log SE (converted)): 12.2 ± 0.94 nM | Amylin dose response: Maximal response, Mean ± SEM (rat soleus muscle; [insulin] 0.21 nM (nominal)): 1.26 ± 0.18 μmol/g wet tissue/hr | EC50 (rat soleus muscle; [insulin] 0.21 nM (nominal), nominal amylin concentrations, read-out: Amylin dose response: EC50, Mean ± log SE (converted)): 10.3 ± 0.48 nM | Amylin dose response: Maximal response, Mean ± SEM (rat soleus muscle; [insulin] 0.71 nM (nominal)): 2.11 ± 0.18 μmol/g wet tissue/hr | EC50 (rat soleus muscle; [insulin] 0.71 nM (nominal), nominal amylin concentrations, read-out: Amylin dose response: EC50, Mean ± log SE (converted)): 8.24 ± 0.24 nM | Amylin dose response: Maximal response, Mean ± SEM (rat soleus muscle; [insulin] 2.1 nM (nominal)): 2.94 ± 0.18 μmol/g wet tissue/hr | EC50 (rat soleus muscle; [insulin] 2.1 nM (nominal), nominal amylin concentrations, read-out: Amylin dose response: EC50, Mean ± log SE (converted)): 10.4 ± 0.16 nM | Amylin dose response: Maximal response, Mean ± SEM (rat soleus muscle; [insulin] 7.1 nM (nominal)): 3.56 ± 0.19 μmol/g wet tissue/hr | EC50 (rat soleus muscle; [insulin] 7.1 nM (nominal), nominal amylin concentrations, read-out: Amylin dose response: EC50, Mean ± log SE (converted)): 8.69 ± 0.13 nM | Amylin dose response: Maximal response, Mean ± SEM (rat soleus muscle; [insulin] 71 nM (nominal)): 4.07 ± 0.18 μmol/g wet tissue/hr | EC50 (rat soleus muscle; [insulin] 71 nM (nominal), nominal amylin concentrations, read-out: Amylin dose response: EC50, Mean ± log SE (converted)): 11.93 ± 0.11 nM | mode of action on the insulin response in soleus muscle (rat soleus muscle; from insulin/amylin dose response matrix): noncompetitive, functional antagonist to insulin
